Here are results for 46 compounds from the OPERA property sets (Mansouri et al. 2018).

Usually melting point stands for the temperature of the solid-liquid transition. The boiling point is the temperature of boiling at a given pressure.

In turn, `Clc1cc2oc3cc(Cl)c(Cl)c(Cl)c3c2c(Cl)c1Cl` came in with a log10 Koa of 10.9.
The compound `Cc1csc(N)n1` came in with a melting point of 45.5 °C.
The compound `CC1CC1C` (stereo unspecified) displayed a boiling point of 32.6 °C and a melting point of -145 °C.
Regarding `N#CCc1ccccc1`, the boiling point is 234 °C, the log10 vapour pressure (mmHg) was -1.05, the melting point was -23.8 °C and the ready biodegradability entry was “readily biodegradable”.
`O=NN(CCCl)C(=O)NC1CCCCC1` gave a melting point of 89 °C.
With `C=CC(C)(C)O`, the boiling point came out at 97 °C, the log10 Henry constant (atm·m³/mol) was -4.68 and the melting point is -28 °C.
The compound `ClC(Cl)Br` displayed a boiling point of 90 °C, a log10 Henry constant (atm·m³/mol) of -2.67, a log10 Koc (L/kg) of 1.78 and a melting point of -57 °C. Further, the ready biodegradability result is given as “readily biodegradable”.
On to `CC(C)C1=CC2C(C)CC1C1C(=O)OC(=O)C21` (stereo unspecified), for which the ready biodegradability entry is on record as “not readily biodegradable”.
On to `O=[N+]([O-])c1ccc(Cl)c(Cl)c1Cl`, for which the melting point turned out to be 55.5 °C.
As for `CCCC(C)C(C)CC` (stereo unspecified), the boiling point was found to be 141 °C.
Turning to `BrCCCCCCCCCCBr`, the ready biodegradability entry is “not readily biodegradable”.
Take `NS(=O)(=O)c1ccc(SCCCO)c(F)c1`: the melting point came out at 110 °C.
In turn, `COC=O` yielded a boiling point of 31.7 °C, a log10 Henry constant (atm·m³/mol) of -3.65, a log10 Koa of 1.75 and a log10 vapour pressure (mmHg) of 2.77. The compound further yielded a melting point of -99 °C.
As to `CC=C(C)CCl`, the boiling point is 110 °C.
With `CCCCC(C)(O)CC` (stereo unspecified), the boiling point was 163 °C and the melting point was -83 °C.
The compound `CCCCCCCCCCCCCCCCCCCCC` yielded a boiling point of 356 °C, a log10 biodegradation half-life (days) of 1.4, a log10 vapour pressure (mmHg) of -4.06 and a melting point of 40.5 °C. The ready biodegradability entry was “readily biodegradable”.
Regarding `Clc1cc2cccc(Cl)c2cc1Cl`, the log10 Koa amounted to 7.5.
In turn, `O=C1c2ccccc2C(=O)c2c1ccc(O)c2O` yielded a boiling point of 430 °C, a log10 vapour pressure (mmHg) of -9.06 and a melting point of 290 °C.
With `O=C1CCCCCCCCC1`, the melting point amounted to 28 °C.
Compound `Clc1ccc(C(Cl)(Cl)Cl)cc1Cl` displayed a boiling point of 283 °C and a melting point of 25.8 °C.
In the case of `COC(=O)C(C)Oc1ccc(Oc2ncc(C(F)(F)F)cc2Cl)cc1` (stereo unspecified), the log10 Koc (L/kg) came out at 1.88, the log10 vapour pressure (mmHg) is -5.22 and the melting point was found to be 56 °C.
Take `CCC(=O)C(=O)CC`: the boiling point was determined as 130 °C and the melting point was -10 °C.
The compound `CC(C)=CCC(C)C` showed a boiling point of 112 °C and a log10 vapour pressure (mmHg) of 1.4.
As to `CCCCCCCCCCCC(=O)N(CCO)CCO`, the ready biodegradability result was “readily biodegradable”.
Turning to `Cc1ccc(C)c(Cl)c1`, the boiling point is 187 °C, the melting point stood at 1.6 °C and the ready biodegradability entry is “not readily biodegradable”.
Regarding `CCN(C(=O)Oc1cccc(NC(=O)OC(C)C)c1)c1ccccc1`, the melting point is 110 °C.
Same read-out and setting: in the case of `Oc1ccc(Br)c(O)c1` it was 103 °C.
Same read-out and setting: in the case of `O=Cc1ccccc1C(=O)O` it was 98 °C.
Turning to `c1ccc2c(c1)ccc1c3ccccc3ccc21`, the boiling point stood at 448 °C, the log10 Henry constant (atm·m³/mol) was -5.28, the log10 biodegradation half-life (days) amounted to 2.58 and the log10 vapour pressure (mmHg) was -8.21. In addition, the melting point came out at 258 °C.
For the compound `O=C(CCCN1CCC(O)(c2ccc(Cl)cc2)CC1)c1ccc(F)cc1`, the melting point was found to be 152 °C.
Compound `CCCCOCCOCCO` had a boiling point of 231 °C, a log10 Henry constant (atm·m³/mol) of -8.14, a log10 vapour pressure (mmHg) of -1.66 and a melting point of -68 °C. Moreover, the ready biodegradability result is “readily biodegradable”.
`CCC(O)(COC(N)=O)c1ccccc1` (stereo unspecified) came in with a melting point of 55 °C.
As for `C#CCCCCCC`, the boiling point came out at 126 °C, the log10 vapour pressure (mmHg) turned out to be 1.13 and the melting point is -79.3 °C.
As to `OCCCl`, the boiling point worked out at 129 °C, the log10 Koa is 4.3, the log10 vapour pressure (mmHg) was found to be 0.856 and the melting point is -67.5 °C. Moreover, the ready biodegradability result was “readily biodegradable”.
Turning to `O=C(c1ccccc1)c1cccc([N+](=O)[O-])c1`, the melting point turned out to be 95 °C.
`Nc1cccc(S(=O)(=O)O)c1`: the ready biodegradability result is given as “not readily biodegradable”.
The compound `ClCC(Cl)(Cl)C(Cl)(Cl)Cl` had a boiling point of 216 °C and a melting point of 26 °C.
For the compound `CCN(CC)Cc1cccnc1`, the log10 vapour pressure (mmHg) is -2.37.
`Clc1cc2c(cc1Cl)Oc1c(Cl)c(Cl)c(Cl)c(Cl)c1O2` had a log10 vapour pressure (mmHg) of -10.4 and a melting point of 273 °C.
Compound `CC[N+](C)(CC)CCOC(=O)C(O)(c1ccccc1)C1CCCCC1.[Br-]` (stereo unspecified) came in with a melting point of 192 °C.
In turn, `CCC(O)C(Cl)(Cl)Cl` (stereo unspecified) displayed a boiling point of 171 °C.
Turning to `CCSc1ccc(C)cc1`, the boiling point turned out to be 220 °C.
On to `CN1CCC(N(Cc2cccs2)c2ccccc2)CC1`, for which the melting point came out at 96 °C.
`C[Si](C)(C)CCCO` came in with a boiling point of 141 °C.
`CCC(C)C(C)C(C)C` (stereo unspecified): the boiling point was found to be 139 °C and the log10 vapour pressure (mmHg) stood at 0.955.
Compound `O=C(O)[C@H](O)[C@@H](O)C(=O)O` (racemic) came in with a melting point of 174 °C.
